Laboratory results: PubChem BioAssay (NCI)
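Protocol summary: plate cells (96-well), add compound at 5 concentrations, incubate 48 h, interpolate endpoints linearly. GI50 = concentration required for 50% inhibition of growth. The concentration for full growth arrest is given as TGI.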

Legend:
Assay in all cases: inhibition of tumour cell growth, NCI panel, 48 h
786-0 renal = test system: 786-0 renal
A498 renal = test system: A498 renal
A549 NSCLC = test system: A549 NSCLC
ACHN renal = test system: ACHN renal
BT-549 breast = test system: BT-549 breast
CAKI-1 renal = test system: CAKI-1 renal
CCRF-CEM leukemia = test system: CCRF-CEM leukemia
COLO 205 colon = test system: COLO 205 colon
DU-145 prostate = test system: DU-145 prostate
EKVX NSCLC = test system: EKVX NSCLC
HCC-2998 colon = test system: HCC-2998 colon
HCT-116 colon = test system: HCT-116 colon
HCT-15 colon = test system: HCT-15 colon
HOP-62 NSCLC = test system: HOP-62 NSCLC
HOP-92 NSCLC = test system: HOP-92 NSCLC
HS 578T breast = test system: HS 578T breast
HT29 colon = test system: HT29 colon
IGROV1 ovarian = test system: IGROV1 ovarian
K-562 leukemia = test system: K-562 leukemia
KM12 colon = test system: KM12 colon
LOX IMVI melanoma = test system: LOX IMVI melanoma
M14 melanoma = test system: M14 melanoma
MALME-3M melanoma = test system: MALME-3M melanoma
MCF7 breast = test system: MCF7 breast
MDA-MB-231 breast = test system: MDA-MB-231 breast
MDA-MB-435 = test system: MDA-MB-435
MOLT-4 leukemia = test system: MOLT-4 leukemia
NCI-H226 lung = test system: NCI-H226 lung
NCI-H23 lung = test system: NCI-H23 lung
NCI-H460 lung = test system: NCI-H460 lung
NCI-H522 lung = test system: NCI-H522 lung
NCI/ADR-RES ovarian = test system: NCI/ADR-RES ovarian
OVCAR-3 ovarian = test system: OVCAR-3 ovarian
OVCAR-4 ovarian = test system: OVCAR-4 ovarian
OVCAR-5 ovarian = test system: OVCAR-5 ovarian
OVCAR-8 ovarian = test system: OVCAR-8 ovarian
PC-3 prostate = test system: PC-3 prostate
RPMI-8226 leukemia = test system: RPMI-8226 leukemia
SF-268 CNS = test system: SF-268 CNS
SK-MEL-2 melanoma = test system: SK-MEL-2 melanoma
SK-MEL-28 melanoma = test system: SK-MEL-28 melanoma
SK-MEL-5 melanoma = test system: SK-MEL-5 melanoma
SK-OV-3 ovarian = test system: SK-OV-3 ovarian
SN12C renal = test system: SN12C renal
SNB-19 CNS = test system: SNB-19 CNS
SR leukemia = test system: SR leukemia
SW-620 colon = test system: SW-620 colon
T-47D breast = test system: T-47D breast
TK-10 renal = test system: TK-10 renal
U251 CNS = test system: U251 CNS
UACC-257 melanoma = test system: UACC-257 melanoma
UACC-62 melanoma = test system: UACC-62 melanoma
UO-31 renal = test system: UO-31 renal

## COc1ccc2nc(NC(=O)COc3cc(/C=C\c4cc(OC)c(OC)c(OC)c4)ccc3OC)sc2c1
786-0 renal
  GI50: 7.52 µM
  TGI: > 100 µM
A498 renal
  GI50: 3.5 µM
  TGI: > 100 µM
A549 NSCLC
  GI50: 5.18 µM
  TGI: > 100 µM
ACHN renal
  GI50: 7.77 µM
  TGI: > 100 µM
BT-549 breast
  GI50: 21.2 µM
  TGI: > 100 µM
CAKI-1 renal
  GI50: 3.2 µM
  TGI: > 100 µM
CCRF-CEM leukemia
  GI50: 3.87 µM
  TGI: > 100 µM
COLO 205 colon
  GI50: 3.89 µM
  TGI: > 100 µM
DU-145 prostate
  GI50: 2.04 µM
  TGI: 6.96 µM
EKVX NSCLC
  GI50: 5.11 µM
  TGI: > 100 µM
HCC-2998 colon
  GI50: 7.35 µM
  TGI: > 100 µM
HCT-116 colon
  GI50: 3.7 µM
  TGI: > 100 µM
HCT-15 colon
  GI50: 2.89 µM
  TGI: > 100 µM
HOP-62 NSCLC
  GI50: 23.3 µM
  TGI: > 100 µM
HOP-92 NSCLC
  GI50: 6.28 µM
  TGI: > 100 µM
HS 578T breast
  GI50: 4.15 µM
  TGI: > 100 µM
HT29 colon
  GI50: 3.34 µM
  TGI: > 100 µM
IGROV1 ovarian
  GI50: 7 µM
  TGI: > 100 µM
K-562 leukemia
  GI50: 3.6 µM
  TGI: > 100 µM
KM12 colon
  GI50: 3.12 µM
  TGI: 21.2 µM
LOX IMVI melanoma
  GI50: 4.17 µM
  TGI: > 100 µM
M14 melanoma
  GI50: 4.33 µM
  TGI: > 100 µM
MALME-3M melanoma
  GI50: > 100 µM
  TGI: > 100 µM
MCF7 breast
  GI50: 2.88 µM
  TGI: > 100 µM
MDA-MB-231 breast
  GI50: 5.4 µM
  TGI: > 100 µM
MDA-MB-435
  GI50: 1.16 µM
  TGI: 6.44 µM
MOLT-4 leukemia
  GI50: 3.87 µM
  TGI: > 100 µM
NCI-H226 lung
  GI50: 4.51 µM
  TGI: > 100 µM
NCI-H23 lung
  GI50: 3.91 µM
  TGI: > 100 µM
NCI-H460 lung
  GI50: 3.73 µM
  TGI: > 100 µM
NCI-H522 lung
  GI50: 3.09 µM
  TGI: > 100 µM
NCI/ADR-RES ovarian
  GI50: 2.3 µM
  TGI: 7.46 µM
OVCAR-3 ovarian
  GI50: 2.17 µM
  TGI: 5.02 µM
OVCAR-4 ovarian
  GI50: 5.31 µM
  TGI: > 100 µM
OVCAR-5 ovarian
  GI50: 5.89 µM
  TGI: > 100 µM
OVCAR-8 ovarian
  GI50: 5.28 µM
  TGI: > 100 µM
PC-3 prostate
  GI50: 4.45 µM
  TGI: > 100 µM
RPMI-8226 leukemia
  GI50: 5.43 µM
  TGI: > 100 µM
SF-268 CNS
  GI50: 4.31 µM
  TGI: > 100 µM
SK-MEL-2 melanoma
  GI50: 4.07 µM
  TGI: > 100 µM
SK-MEL-28 melanoma
  GI50: 4.41 µM
  TGI: > 100 µM
SK-MEL-5 melanoma
  GI50: 2.68 µM
  TGI: 38.4 µM
SK-OV-3 ovarian
  GI50: 4.69 µM
  TGI: > 100 µM
SN12C renal
  GI50: 5.75 µM
  TGI: > 100 µM
SNB-19 CNS
  GI50: 6.3 µM
  TGI: > 100 µM
SR leukemia
  GI50: 3.69 µM
  TGI: > 100 µM
SW-620 colon
  GI50: 5.1 µM
  TGI: > 100 µM
T-47D breast
  GI50: 4.03 µM
  TGI: > 100 µM
TK-10 renal
  GI50: 7.54 µM
  TGI: > 100 µM
U251 CNS
  GI50: 4 µM
  TGI: > 100 µM
UACC-257 melanoma
  GI50: 63.9 µM
  TGI: > 100 µM
UACC-62 melanoma
  GI50: 5.93 µM
  TGI: > 100 µM
UO-31 renal
  GI50: 4.31 µM
  TGI: > 100 µM
